49 molecules from patent US20090239841A1, “Diaryl Ureas as CB1 Antagonists” (priority 2004, published 2009) can be followed below.

In general, IC50 refers to the concentration needed to halve the response being measured.

Some results are limits rather than exact numbers.

For the first experiment, the target named is T1, hCB1 (Homo sapiens, UniProt P21554).
T1 construct: made in house; host or cells: Sf9 insect cells (baculovirus), P2 membranes
T1 sequence (P21554 whole entry): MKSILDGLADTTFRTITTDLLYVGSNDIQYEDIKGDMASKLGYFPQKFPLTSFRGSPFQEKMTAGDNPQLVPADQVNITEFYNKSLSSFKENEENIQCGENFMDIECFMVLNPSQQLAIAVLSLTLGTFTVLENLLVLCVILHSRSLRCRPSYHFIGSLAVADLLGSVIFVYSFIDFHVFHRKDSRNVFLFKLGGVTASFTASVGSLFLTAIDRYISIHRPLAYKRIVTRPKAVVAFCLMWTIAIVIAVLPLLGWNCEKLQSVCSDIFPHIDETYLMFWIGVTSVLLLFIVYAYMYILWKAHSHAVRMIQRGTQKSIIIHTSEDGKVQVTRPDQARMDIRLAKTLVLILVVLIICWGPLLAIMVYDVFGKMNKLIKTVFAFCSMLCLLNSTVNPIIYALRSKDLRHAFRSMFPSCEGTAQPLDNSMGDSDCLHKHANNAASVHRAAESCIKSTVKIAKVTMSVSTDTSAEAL
Description: Agonist-induced GTP binding (GTPγ35S) assay at CB1, Example 8.
Conditions: not given
Type of experiment: biochemical. The procedure, abridged:
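Membranes from Sf9 cells co-expressing hCB1 and heterotrimeric G-protein (10 μg protein) in Tris pH 7.4 buffer with 5 μM GDP. Test compounds (10^−10–10^−5 M) competed against 1 nM CP55,940 with […] GTPγ35S, 60 min at room temperature. Filter-bound radioactivity by scintillation, expressed as percent above basal.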
In the case of `O=C(Nc1ccc(OC(F)F)cc1)Nc1ccnc(Cl)c1` [Compound 628, 1-(2-chloropyridin-4-yl)-3-[4-(difluoromethoxy)phenyl]urea], the IC50 was below 2 µM.

Still in this experiment, the particulars now being: IC50 at CB1, determined as described in Example 8; read-out: IC50.
As to `CCOC(=O)c1cccc(NC(=O)Nc2ccc(Cl)cc2)c1` [Compound 648, ethyl 3-({[(4-chlorophenyl)amino]carbonyl}amino)benzoate], the IC50 is below 2 µM.
Still for that read-out and setting: next, `CCOC(=O)c1ccc(NC(=O)Nc2cccc(C#N)c2)cc1` [Compound 511, ethyl 4-({[(3-cyanophenyl)amino]carbonyl}amino)benzoate]: below 2 µM; `Cc1ccc(NC(=O)Nc2cccc(OC(C)C)c2)cc1C` [Compound 687, 1-(3,4-dimethylphenyl)-3-(3-isopropoxyphenyl)urea]: below 2 µM.
Take `Cc1ccc(NC(=O)Nc2ccc(Cl)cc2)cc1C` [Compound 437, 1-(4-chlorophenyl)-3-(3,4-dimethylphenyl)urea]: the IC50 is below 2 µM.
The same measure, in the same setting: the figure for `COc1ccc(NC(=O)Nc2cccc(OC(C)C)c2)cc1` [Compound 549, 1-(3-isopropoxyphenyl)-3-(4-methoxyphenyl)urea] is below 2 µM; for `CCCOc1ccc(NC(=O)Nc2cccc(C(C)=O)c2)cc1` [Compound 416, 1-(3-acetylphenyl)-3-(4-propoxyphenyl)urea] it is below 2 µM; for `CCc1cccc(NC(=O)Nc2ccc(COC)cc2)c1` [Compound 392, 1-(3-ethylphenyl)-3-[4-(methoxymethyl)phenyl]urea] it is below 2 µM.
Same read-out and setting: next, `CCCc1ccc(NC(=O)Nc2ccc(OCC)cc2)cc1` [Compound 526, 1-(4-ethoxyphenyl)-3-(4-propylphenyl)urea]: below 2 µM; `CC(C)c1ccc(NC(=O)Nc2ccc(Cl)cc2)cc1` [Compound 333, 1-(4-chlorophenyl)-3-(4-isopropylphenyl)urea]: below 2 µM.
Still for that read-out and setting: the figure for `COC(=O)c1ccc(NC(=O)Nc2cccc(OCCO)c2)cc1` [Compound 755, methyl 4-[({[3-(2-hydroxyethoxy)phenyl]amino}carbonyl)amino] benzoate] is below 2 µM; for `COCc1ccc(NC(=O)Nc2ccc(C(C)C)cc2)cc1` [Compound 572, 1-(4-isopropylphenyl)-3-[4-(methoxymethyl)phenyl]urea] it is below 2 µM.
On to `N#CCOc1ccc(NC(=O)Nc2cccc([N+](=O)[O-])c2)cc1` [Compound 600, 1-[4-(cyanomethoxy)phenyl]-3-(3-nitrophenyl)urea], for which the IC50 is below 2 µM.
The same measure, in the same setting: next, `Cc1ccc(NC(=O)Nc2ccc(F)c(F)c2)cc1F` [Compound 774, 1-(3,4-difluorophenyl)-3-(3-fluoro-4-methylphenyl)urea]: below 2 µM; `O=C(Nc1ccc(Cn2cncn2)cc1)Nc1ccc(OC(F)F)cc1` [Compound 787, N-[4-(difluoromethoxy)phenyl]-N′-[4-(1H-1,2,4-triazol-1-ylmethyl)phenyl]urea]: below 2 µM.
The same measure, in the same setting: the figure for `COC(=O)c1ccc(NC(=O)Nc2cccc(O)c2)cc1` [Compound 745, methyl 4-({[(3-hydroxyphenyl)amino]carbonyl}amino)benzoate] is below 2 µM.
The same measure, in the same setting: the figure for `N#CCc1ccc(NC(=O)Nc2cccc(F)c2)cc1` [Compound 461, 1-[4-(cyanomethyl)phenyl]-3-(3-fluorophenyl)urea] is below 2 µM; for `CC(=O)c1ccc(NC(=O)Nc2ccc(Cl)cc2)cc1` [Compound 344, 1-(4-acetylphenyl)-3-(4-chlorophenyl)urea] it is below 2 µM; for `Cc1ccc(NC(=O)Nc2cccc(C#N)c2)cc1C` [Compound 447, 1-(3-cyanophenyl)-3-(3,4-dimethylphenyl)urea] it is below 2 µM.
In the case of `CC(C)Oc1ccc(NC(=O)Nc2ccc(OC(F)(F)F)cc2)cc1` [Compound 538, 1-(4-isopropoxyphenyl)-3-[4-(trifluoromethoxy)phenyl]urea], the IC50 is below 2 µM.
Still for that read-out and setting: the figure for `CCC(=O)c1ccc(NC(=O)Nc2ccc(CC)cc2)cc1` [Compound 492, 1-(4-ethylphenyl)-3-(4-propionylphenyl)urea] is below 2 µM; for `CC(=O)c1ccc(NC(=O)Nc2cccc(OC(F)F)c2)cc1` [Compound 426, 1-(4-acetylphenyl)-3-[3-(difluoromethoxy)phenyl]urea] it is below 2 µM.
On the same count and under the same terms, next, `CCOC(=O)c1ccc(NC(=O)Nc2cccc(CCO)c2)cc1` [Compound 751, ethyl 4-[({[3-(2-hydroxyethyl)phenyl]amino}carbonyl)amino] benzoate]: below 2 µM; `Cc1ccc(NC(=O)Nc2ccc(C(=O)OC(C)C)cc2)cc1` [Compound 478, isopropyl 4-({[(4-methylphenyl)amino]carbonyl}amino)benzoate]: below 2 µM.
On the same count and under the same terms, next, `CCCc1ccc(NC(=O)Nc2ccccc2)cc1` [Compound 291, N-phenyl-N′-(4-propylphenyl)urea]: below 2 µM; `CCc1ccc(NC(=O)Nc2ccc(OC(C)C)cc2)cc1` [Compound 403, 1-(4-ethylphenyl)-3-(4-isopropoxyphenyl)urea]: below 2 µM.
Regarding `N#CCOc1ccc(NC(=O)Nc2ccc(F)cc2)cc1` [Compound 467, 1-[4-(cyanomethoxy)phenyl]-3-(4-fluorophenyl)urea], the IC50 is below 2 µM.
Still for that read-out and setting: the figure for `Cc1ccc(NC(=O)Nc2cccc(OCCO)c2)cc1F` [Compound 762, 1-(3-fluoro-4-methylphenyl)-3-[3-(2-hydroxyethoxy)phenyl]urea] is below 2 µM.
Same read-out and setting: the figure for `CCc1ccc(NC(=O)Nc2ccc(F)c(C)c2)cc1` [Compound 440, 1-(4-ethylphenyl)-3-(4-fluoro-3-methylphenyl)urea] is below 2 µM.
On the same count and under the same terms, next, `NC(=O)CN1CCN(S(=O)(=O)c2ccc(NC(=O)Nc3cccc(OC(F)F)c3)cc2)CC1` [Compound 793, 2-[4-({4-[({[3-(difluoromethoxy)phenyl]amino}carbonyl)amino]phenyl}sulfonyl)-1-piperazinyl] acetamide]: below 2 µM; `CN1CCN(S(=O)(=O)c2ccc(NC(=O)Nc3cccc(OC(F)F)c3)cc2)CC1` [Compound 790, N-[3-(difluoromethoxy)phenyl]-N′-{4-[(4-methyl-1-piperazinyl)sulfonyl]phenyl}urea]: below 2 µM.
In the case of `CCOc1ccc(NC(=O)Nc2ccc(F)cc2)cc1` [Compound 358, 1-(4-ethoxyphenyl)-3-(4-fluorophenyl)urea], the IC50 was below 2 µM.
Same read-out and setting: the figure for `CC(C)OC(=O)c1ccc(NC(=O)Nc2cccc(F)c2)cc1` [Compound 479, isopropyl 4-({[(3-fluorophenyl)amino]carbonyl}amino)benzoate] is below 2 µM.
`N#CCOc1ccc(NC(=O)Nc2cccc(OC(F)F)c2)cc1` [Compound 783, N-[4-(cyanomethoxy)phenyl]-N′-[3-(difluoromethoxy)phenyl]urea]: the IC50 is below 2 µM.

The same experiment, now with this note: Table I; IC50 at CB1, GTP binding with 1 nM CP55,940; read-out: IC50.
As to `CCc1ccc(NC(=O)Nc2cccc(C(C)=O)c2)cc1` [Compound 56, N-(3-acetylphenyl)-N′-(4-ethylphenyl)urea], the half-inhibitory concentration (IC50) was below 2 µM.

The same experiment, now with this note: Table II; IC50 at CB1, GTP binding with 1 nM CP55,940; read-out: IC50.
Regarding `CCOc1ccc(NC(=O)Nc2ccc(OC(F)F)cc2)cc1` [Compound 131, N-[4-(difluoromethoxy)phenyl]-N′-(4-ethoxyphenyl)urea], the IC50 was below 2 µM.
Same read-out and setting: next, `CCc1cccc(NC(=O)Nc2cccc(OC(C)C)c2)c1` [Compound 246, N-(3-ethylphenyl)-N′-(3-isopropoxyphenyl)urea]: below 2 µM; `Cc1cccc(NC(=O)Nc2ccc(OC(C)C)cc2)c1` [Compound 213, N-(4-isopropoxyphenyl)-N′-(3-methylphenyl)urea]: below 2 µM.
On the same count and under the same terms, the figure for `CC(C)Oc1cccc(NC(=O)Nc2cccc(Cl)c2)c1` [Compound 247, N-(3-chlorophenyl)-N′-(3-isopropoxyphenyl)urea] is below 2 µM; for `CCc1ccc(NC(=O)Nc2ccc(Cl)nc2)cc1` [Compound 153, N-(6-chloropyridin-3-yl)-N′-(4-ethylphenyl)urea] it is below 2 µM; for `O=C(Nc1ccc(OC(F)F)cc1)Nc1ccc(C(F)(F)F)nc1` [Compound 76, N-[4-(difluoromethoxy)phenyl]-N′-[6-(trifluoromethyl)pyridin-3-yl]urea] it is below 2 µM.
Still for that read-out and setting: the figure for `O=C(Nc1ccc(OC(F)F)cc1)Nc1cccc(-c2ccc(Cl)cn2)c1` [Compound 74, N-[3-(5-chloropyridin-2-yl)phenyl]-N′-[4-(difluoromethoxy)phenyl]urea] is below 2 µM; for `O=C(Nc1ccc(OC(F)F)cc1)Nc1ccc(N2CCCC2)cc1` [Compound 104, N-[4-(difluoromethoxy)phenyl]-N′-(4-pyrrolidin-1-ylphenyl)urea] it is below 2 µM.
With `CCOc1cccc(NC(=O)Nc2cccc(C#N)c2)c1` [Compound 262, N-(3-cyanophenyl)-N′-(3-ethoxyphenyl)urea], the IC50 was below 2 µM.
Same read-out and setting: the figure for `COc1ccc(NC(=O)Nc2cccc(C#N)c2)cc1` [Compound 259, N-(3-cyanophenyl)-N′-(4-methoxyphenyl)urea] is below 2 µM; for `O=C(Nc1ccc(OC(F)F)cc1)Nc1cccnc1Cl` [Compound 149, N-(2-chloropyridin-3-yl)-N′-[4-(difluoromethoxy)phenyl]urea] it is below 2 µM.
On the same count and under the same terms, the figure for `CCCCc1ccc(NC(=O)Nc2cccc(C)c2)cc1` [Compound 155, N-(4-butylphenyl)-N′-(3-methylphenyl)urea] is below 2 µM; for `CCOc1ccc(NC(=O)Nc2cccc(C#N)c2)cc1` [Compound 265, N-(3-cyanophenyl)-N′-(4-ethoxyphenyl)urea] it is below 2 µM.
The same measure, in the same setting: the figure for `O=C(Nc1ccc(OC(F)F)cc1)Nc1ccc(OC(F)(F)F)cc1` [Compound 96, N-[4-(difluoromethoxy)phenyl]-N′-[4-(trifluoromethoxy)phenyl]urea] is below 2 µM.
